In patent publication US11890299B2, “Ablation agent and methods of use” (HOLOGIC, INC., priority 2019, dated 2024):

System: bovine liver (simulated tissue)
Assay: Bolus / chemical ablation test in sample bovine liver tissue
Excerpt: For example, a solid active agent (HAuCl4) may be added to water at room temperature, and mixed for approximately ten (10) minutes, then filtered and ready to use. The active agent (HAuCl4) solution may be stored for up to a year without stability issues. The hydrophilic nature of the solution facilitates the delivery and spread of the active agent (HAuCl4) throughout the entire target tissue/cavity, while avoiding formation of lumps in the solution or patches of tissue without the solution when delivered.
FIGS. 2A-C and FIGS. 3-5 illustrate exemplary ablative effects of the active agent (HAuCl4) 300 when applied to a sample tissue. FIG. 2A illustrates a liquid DI water solution of active agent (HAuCl4) 300, a syringe 400 and a sample bovine liver tissue 500. […] FIG. 2C depicts the ablated tissue 500.
Various tests were performed in sample tissue 500. For example, in some tests the active agent (HAuCl4) 300 (1 ml) was delivered into the tissue 500 having a constant time of exposure (e.g., 2 minutes at room temperature) but the bolus size (ablated volume) was measured under different active agent (HAuCl4) concentrations (FIG. 3). Data contained in FIG. 3 was measured three times and obtained the average value for the graph, as shown. As known in the art, bolus tests are common to understand diffusion and effectiveness of ablative technologies.
In another test, the active agent (HAuCl4) concentration was maintained constant at 0.5% in an injected 1 ml into the sample tissue but the bolus size was measured at different times (FIG. 4). Data reference in FIG. 4 was measured five times and obtained the average value for the graph, as shown. […] Additionally, the bolus size is time dependent but after 3 minutes, 1 ml of 0.5% HAuCl4 DI-water solution stopped the reaction because the solution is not strong enough to penetrate the tissue further. Therefore, the active agent (HAuCl4) chemical ablation is quantity and time dependent.
FIG. 5 illustrates sample tissue ablation profiles measured and characterized for a range of active agent (HAuCl4) concentration (0.10%, 0.25% and 1% of HAuCl4 within 2 minutes, and a variety of bolus sizes). Optimization was performed to select 0.5% of HAuCl4 in order to achieve desirable ablation profile (rage of 4-9 mm ablation depth of tissue). Additional optimization could be performed to achieve shallower profiles (if desired).

[Au+3].[Cl-].[Cl-].[Cl-].[Cl-].[H+] [HAuCl4, chloroauric acid]
penetration depths in the tissue from the surface of the tissue (0.5% HAuCl4 diluted in water, up to three (3) minutes of exposure): 4-9 mm | ablation depth of tissue (ablation profile) (0.5% of HAuCl4 selected by optimization): 4-9 mm | bolus size (ablated volume) versus concentration (1 ml injected, 2 minutes at room temperature, different concentrations (FIG. 3)): increases with the active agent (HAuCl4) concentration | time after which the reaction stopped (bolus size versus time) (1 ml of 0.5% HAuCl4 DI-water solution (FIG. 4)): 3 min
